Columns and labels:
[1] = thermodynamic stability of the solid form; type: physicochemical; conditions: crystalline modification 1 compared with amorphous form of WO 2012/139888
[2] = stability in the micronization process; type: physicochemical
[3] = bioavailability of the solid form; type: in vivo; conditions: crystalline form of modification 1

thermodynamic stability [1]: higher thermodynamic stability | stability in the micronization process (conversion, recrystallization) [2]: stable in the micronization process | bioavailability [3]: reproducible bioavailability
Structure (SMILES): C[C@H]([C@H](C(=O)Nc1cc([C@@H](CC(=O)O)C2CC2)ccc1Cl)c1ccc(Cl)cc1)C(F)(F)F [Example I-1, (3S)-3-(4-chloro-3-{[(2S,3R)-2-(4-chlorophenyl)-4,4,4-trifluoro-3-methylbutanoyl]amino}phenyl)-3-cyclopropylpropanoic acid]
